The values that follow come from US7183320B2, “Benzoylsulfonamides and sulfonylbenzamidines for use as antitumour agents” (Eli Lilly and Company, priority 2002, dated 2007).

The subject of data set [1] is HCT116 colon carcinoma cells. Nature of the data set: HCT116 colon carcinoma cell growth inhibition (WST-1, 72 hr). In kind it is cell-based, human. On the procedure: HCT116 Colon Carcinoma Cell Growth Inhibition
HCT116 colon carcinoma cells were grown monolayer culture in RPMI 1640 medium supplemented with 10% fetal bovine serum and 1% penicillin-streptomycin (GibcoBRL, Grand Island, N.Y.). HCT116 cells in exponential growth phase were exposed to various concentrations of the test compounds at 37° C. for 72 hr in 5% carbon dioxide/air. After exposure to the agent, the cells were washed with 0.9% phosphate buffered saline. Growth inhibition was determined using WST-1 cell proliferation reagent as described above. The results are expressed as the growth fraction of treated cells compared with control cultures. Representative compounds of the present invention were tested for efficacy against the human colon HCT116 tumor cells.
For orientation: Formazan colour is commonly taken as a measure of viable cells.

The mark [2] stands for this setting: Homo sapiens, HCT-116, 72 hr exposure.

For `COC(=O)c1ccc(-c2ccc(S(=O)(=O)NC(=O)c3ccc(Cl)cc3Cl)cc2)cc1` [Example 123, N-[2,4-dichlorobenzoyl]-4-(1-methoxycarbonyl-phen-4-yl)phenylsulfonamide], half-maximal inhibition in data set [1] (72 hr exposure) (IC50) was put at 37.7 µM.

For the molecule `COc1ccc(S(=O)(=O)NC(=O)c2ccc(Br)cc2Cl)cc1` [Example 18, N-[2-chloro-4-bromobenzoyl]-4-methoxyphenylsulfonamide], inhibition in data set [1] (setting [2]) was half-maximal at 9.3 µM (IC50). In other words, the single-digit micromolar range.

On to `Cc1ccc(S(=O)(=O)NC(=O)c2ccc(Cl)cc2Cl)cc1` [Example 86, N-[2,4-dichlorobenzoyl]-4-methylphenylsulfonamide], for which the IC50 – broadly, the concentration that gives 50% inhibition – in data set [1] (setting [2]) turned out to be 1.6 µM.

`CC(C)(C)c1ccc(S(=O)(=O)NC(=O)c2ccc(Br)cc2Br)cc1` [Example 5, N-[2,4-dibromobenzoyl]-4-tert-butylphenylsulfonamide] had a 50% inhibitory concentration (IC50) in data set [1] (setting [2]) of 3.8 µM. This IC50 is about 2.4-fold higher than that of the molecule before.

The molecule `CC(C)c1ccc(S(=O)(=O)NC(=O)c2ccc(Br)cc2Cl)cc1` [Example 64, N-[2-chloro-4-bromobenzoyl]-4-isopropylphenyl-sulfonamide] yielded an IC50 in data set [1] (setting [2]) of 18.2 µM.

The molecule `CC(C)(C)c1ccc(S(=O)(=O)NC(=O)c2ccc(Cl)cc2Cl)cc1` [Example 88, N-[2,4-dichlorobenzoyl]-4-tert-butylphenylsulfonamide] yielded an IC50 in data set [1] (setting [2]) of 4.8 µM.

For `Cc1cccc(S(=O)(=O)NC(=O)c2ccc(Br)cc2C)c1` [Example 37, N-[2-methyl-4-bromobenzoyl]-3-methylphenylsulfonamide], the half-inhibitory concentration (IC50) in data set [1] (setting [2]) amounted to 15.5 µM. This IC50 is about 3.2-fold higher than that of the molecule before.

Take `Cc1ccc(C(=O)NS(=O)(=O)c2ccc(F)c(Cl)c2)c(Cl)c1` [Example 59, N-[2-chloro-4-methylbenzoyl]-3-chloro-4-fluorophenyl-sulfonamide]: the half-maximal inhibitory concentration (IC50) in data set [1] (setting [2]) came to 15 µM.

`CC(C)c1ccc(S(=O)(=O)NC(=O)c2ccc(C(F)(F)F)cc2C(F)(F)F)cc1` [Example 63, N-[2,4-bis-trifluoromethylbenzoyl]-4-isopropylphenyl-sulfonamide]: the concentration for half-maximal inhibition (IC50) in data set [1] (setting [2]) stood at 24.7 µM.

As to `Cc1cccc(S(=O)(=O)NC(=O)c2ccc(Cl)cc2C)c1` [Example 55, N-[2-methyl-4-chlorobenzoyl]-3-methylphenylsulfonamide], the IC50 in data set [1] (setting [2]) stood at 9.5 µM.

The molecule `CS(=O)(=O)Oc1ccc(S(=O)(=O)NC(=O)c2ccc(Cl)cc2Cl)cc1` [Example 95, N-[2,4-dichlorobenzoyl]-4-methylsulfonyloxyphenyl-sulfonamide] yielded an IC50 in data set [1] (setting [2]) of 4.3 µM.

`CCc1ccc(S(=O)(=O)NC(=O)c2ccc(Cl)cc2C)cc1` [Example 70, N-[2-methyl-4-chlorobenzoyl]-4-ethylphenylsulfonamide]: half-maximal inhibition in data set [1] (setting [2]) (IC50) was put at 16.9 µM. Compared with the last molecule, the IC50 is about 3.9-fold higher.

Take `COc1cc(C)ccc1S(=O)(=O)NC(=O)c1ccc(Cl)cc1C` [Example 44, N-[2-methyl-4-chlorobenzoyl]-2-methoxy-4-methylphenylsulfonamide]: the IC50 in data set [1] (setting [2]) stood at 18.7 µM. This IC50 and that of the molecule before are within 1.5-fold of each other.

Molecule `O=C(NS(=O)(=O)c1ccc(F)c(Cl)c1)c1ccc(Cl)cc1Cl` [Example 9, N-[2,4-dichlorobenzoyl]-3-chloro-4-fluorophenylsulfonamide] came in with an IC50 in data set [1] (setting [2]) of 1.7 µM.

For `O=C(NS(=O)(=O)c1cccc(C(F)(F)F)c1)c1ccc(Cl)cc1Cl` [Example 25, N-[2,4-dichlorobenzoyl]-3-trifluoromethyl-phenylsulfonamide], in data set [1] (setting [2]), it took 9.6 µM to reach half-maximal inhibition (IC50).

In the case of `Cc1cccc(C(=O)NS(=O)(=O)c2ccc(Cl)cc2)c1Cl` [Example 102, N-[2-chloro-3-methylbenzoyl]-4-chlorophenylsulfonamide], the IC50 in data set [1] (setting [2]) is 6.3 µM. Compared with the last molecule, the IC50 is about 1.5-fold lower.

`O=C(NS(=O)(=O)c1ccc(F)cc1)c1ccc(Br)cc1Cl` [Example 16, N-[2-chloro-4-bromobenzoyl]-4-fluorophenylsulfonamide] gave an IC50 in data set [1] (setting [2]) of 3.8 µM.

In data set [1] (setting [2]), `Cc1cc(Cl)ccc1C(=O)NS(=O)(=O)c1ccccc1` [Example 60, N-[2-methyl-4-chlorobenzoyl]-phenylsulfonamide] registered an IC50 of 6.6 µM.

`COC(=O)c1ccc(S(=O)(=O)NC(=O)c2ccc(Cl)cc2Br)cc1` [Example 30, N-[2-bromo-4-chlorobenzoyl]-4-methyoxycarbonyl-phenylsulfonamide] gave an IC50 in data set [1] (72 hr exposure) of 10.1 µM.

`O=C(NS(=O)(=O)c1ccc(Cl)cc1)c1ccc(C(F)(F)F)cc1C(F)(F)F` [Example 99, N-[2,4-bis-trifluoromethylbenzoyl]-4-chlorophenylsulfonamide] gave an IC50 in data set [1] (setting [2]) of 33.5 µM.

With `O=C(NS(=O)(=O)c1ccc(-c2cccc3cccnc23)cc1)c1ccc(Cl)cc1Cl` [Example 124, N-[2,4-dichlorobenzoyl]-4-quinolin-8-yl-phenylsulfonamide], the IC50 in data set [1] (setting [2]) was 5.6 µM.

In the case of `O=C(NS(=O)(=O)c1ccc(F)c(F)c1)c1ccc(C(F)(F)F)cc1C(F)(F)F` [Example 53, N-[2,4-bis-trifluoromethylbenzoyl]-3,4-difluorophenyl-sulfonamide], the IC50 in data set [1] (setting [2]) was 11.2 µM.

In data set [1] (setting [2]), `O=C(NS(=O)(=O)c1ccc(-c2ccoc2)cc1)c1ccc(Cl)cc1Cl` [Example 126, N-[2,4-dichlorobenzoyl]-4-fur-3-yl-phenylsulfonamide] registered an IC50 of 18.5 µM.

In data set [1] (setting [2]), `Cc1ccc(S(=O)(=O)NC(=O)c2ccc(Cl)cc2C)cc1Cl` [Example 45, N-[2-methyl-4-chlorobenzoyl]-3-chloro-4-methylphenylsulfonamide] returned an IC50 of 20.7 µM.

On to `O=C(NS(=O)(=O)c1cccc(Cl)c1)c1ccc(Br)cc1Cl` [Example 17, N-[2-chloro-4-bromobenzoyl]-3-chlorophenylsulfonamide], for which, in data set [1] (setting [2]), the IC50 was 15.8 µM.

Regarding `Cc1cc(Cl)ccc1C(=O)NS(=O)(=O)c1ccc(C(C)(C)C)cc1` [Example 105, N-[2-methyl-4-chlorobenzoyl]-4-tert-butylphenylsulfonamide], the midpoint of inhibition in data set [1] (setting [2]), the IC50, lay at 14.8 µM.

As for `O=C(NS(=O)(=O)c1cccc(F)c1)c1ccc(Cl)cc1Cl` [Example 26, N-[2,4-dichlorobenzoyl]-3-fluorophenylsulfonamide], the IC50 in data set [1] (setting [2]) was determined as 6.1 µM.

`COc1ccc(S(=O)(=O)NC(=O)c2ccc(Cl)cc2C)cc1` [Example 41, N-[2-methyl-4-chlorobenzoyl]-4-methoxyphenylsulfonamide]: the IC50 in data set [1] (setting [2]) was 14.5 µM.

With `COc1cccc(S(=O)(=O)NC(=O)c2ccc(Cl)cc2Cl)c1` [Example 80, N-[2,4-dichlorobenzoyl]-3-methoxyphenyl-sulfonamide], in data set [1] (setting [2]), the IC50 was 12.3 µM.

For the molecule `COC(=O)c1cc(S(=O)(=O)NC(=O)c2ccc(Cl)cc2Br)ccc1OC` [Example 32, N-[2-bromo-4-chlorobenzoyl]-3-methoxycarbonyl-4-methoxyphenylsulfonamide], the IC50 in data set [1] (setting [2]) is 7.8 µM.

Turning to `O=C(NS(=O)(=O)c1ccc(Cl)c(Cl)c1)c1ccc(Cl)cc1Cl` [Example 92, N-[2,4-dichlorobenzoyl]-3,4-dichlorophenylsulfonamide], the IC50 in data set [1] (setting [2]) was 17.4 µM. This IC50 lies about 2.2-fold higher than the previous one.

In turn, `O=C(NS(=O)(=O)c1ccc(Cl)cc1)c1ccc(Br)cc1Br` [Example 6, N-[2,4-dibromobenzoyl]-4-chlorophenylsulfonamide] returned an IC50 in data set [1] (setting [2]) of 4 µM.

For the molecule `O=C(NS(=O)(=O)c1ccc(O)cc1)c1ccc(Cl)cc1Cl` [Example 117, N-[2,4-dichlorobenzoyl]-4-hydroxyphenylsulfonamide], the melting point (in general, the temperature of the solid-liquid transition) is 155 to 157 °C.

Consider `O=C(NS(=O)(=O)c1ccccc1)c1ccc(Br)cc1Cl` [Example 11, N-[2-chloro-4-bromobenzoyl]-phenylsulfonamide], for which it took 5.5 µM to reach half-maximal inhibition in data set [1] (setting [2]) (IC50).

`COc1ccc(S(=O)(=O)NC(=O)c2ccc([N+](=O)[O-])cc2Cl)cc1` [Example 20, N-[2-chloro-4-nitrobenzoyl]-4-methoxyphenylsulfonamide] registered a half-maximal inhibitory concentration (IC50) in data set [1] (setting [2]) of 2.4 µM. This IC50 lies about 2.3-fold lower than the previous one.

`O=C(NS(=O)(=O)c1ccc(Cl)cc1)c1ccc(Cl)cc1Cl` [Example 111, N-[2,4-dichlorobenzoyl]-4-chlorophenylsulfonamide]: the half-maximal inhibitory concentration (IC50) in data set [1] (setting [2]) is 15 µM. Compared with the last molecule, the IC50 is about 6.2-fold higher.

The molecule `Cc1cc(Cl)ccc1C(=O)NS(=O)(=O)c1ccc(F)cc1` [Example 42, N-[2-methyl-4-chlorobenzoyl]-4-fluorophenylsulfonamide] showed an IC50 in data set [1] (setting [2]) of 3.3 µM.
